Measurements as given in US12054487B2, “Muscarinic acetylcholine M1 receptor antagonists” (Contineum Therapeutics, Inc., priority 2018, dated 2024).
pIC50: −log10 of the molar value.

Legend:
Format in all cases: cell-based
human M1 receptor = target: T1, human M1 receptor (Homo sapiens, UniProt P11229); experiment: In vitro functional assay of muscarinic acetylcholine receptor activity (aequorin calcium flux, antagonist mode vs EC80 acetylcholine), M1; conditions: CHO-K1 cells stably expressing human M1 receptor with Aequorin; decrease in EC80 acetylcholine response
T1 construct: host or cells: CHO-K1
T1 sequence (P11229 1-460): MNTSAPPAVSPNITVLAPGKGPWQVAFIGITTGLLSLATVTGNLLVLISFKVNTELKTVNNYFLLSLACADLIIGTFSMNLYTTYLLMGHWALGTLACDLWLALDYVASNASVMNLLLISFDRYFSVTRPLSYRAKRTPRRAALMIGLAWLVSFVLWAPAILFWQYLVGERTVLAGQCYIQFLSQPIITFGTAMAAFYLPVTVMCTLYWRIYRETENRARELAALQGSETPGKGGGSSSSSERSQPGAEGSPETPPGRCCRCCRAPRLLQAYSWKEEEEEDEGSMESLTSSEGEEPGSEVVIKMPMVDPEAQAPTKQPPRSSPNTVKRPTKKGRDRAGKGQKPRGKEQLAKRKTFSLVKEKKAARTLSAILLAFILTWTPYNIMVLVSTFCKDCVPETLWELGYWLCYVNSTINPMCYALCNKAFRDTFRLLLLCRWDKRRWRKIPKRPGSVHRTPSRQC
Experimental: (§1) CHO-K1 cells stably expressing human M1 receptor with Aequorin (Perkin Elmer) were grown in F12 media, 10% FBS with 0.4 mg/mL geneticin and […]. Cells were grown to confluence and frozen down to be assayed at a later date. On the day of the experiment cells were thawed in a 37° C. water bath, resuspended in DMEM/HAM's F12 with HEPES (Invitrogen)+0.1% protease-free BSA (assay buffer), and spun down to remove freezing media. After centrifugation, supernatant was removed and 12 mL of assay buffer was added. Coelenterazine h (Promega) was added to the cells at a final concentration of 5 uM and incubated for 4 hours at room temperature in the dark. Compound master plate-96 deep well (Corning) were formatted in a 8-point DRC in assay buffer with 0.2% DMSO at a starting concentration of 60 uM (2×). After 4 hours of incubation, cells were plated at a concentration of 5×10^5 cells/well in 96 well white-walled, tissue culture-treated, clear-bottom plates (VWR). Compounds were added to the daughter plate, and cells plus compound were incubated at room temperature for 30 minutes in the dark.
(§2) Calcium flux was measured using the FlexStation 3 (Molecular Devices). To measure the antagonist dose-response, the EC80 of Acetylcholine was injected to the daughter plate using the automated compound transfer function of the Flex Station, and the increase in luminescence was measured over time. Antagonist activity was analyzed as a concentration dependent decrease in the EC80 acetylcholine response. Dose response curves were generated using Prism (GraphPad Software). The IC50 of the compounds was calculated from the dose response curve.

M2 = target: T2, M2 (Homo sapiens, UniProt P08172); experiment: In vitro functional assay of muscarinic acetylcholine receptor activity, M2; conditions: antagonist activity; M2 method not separately described
T2 sequence (P08172 1-466): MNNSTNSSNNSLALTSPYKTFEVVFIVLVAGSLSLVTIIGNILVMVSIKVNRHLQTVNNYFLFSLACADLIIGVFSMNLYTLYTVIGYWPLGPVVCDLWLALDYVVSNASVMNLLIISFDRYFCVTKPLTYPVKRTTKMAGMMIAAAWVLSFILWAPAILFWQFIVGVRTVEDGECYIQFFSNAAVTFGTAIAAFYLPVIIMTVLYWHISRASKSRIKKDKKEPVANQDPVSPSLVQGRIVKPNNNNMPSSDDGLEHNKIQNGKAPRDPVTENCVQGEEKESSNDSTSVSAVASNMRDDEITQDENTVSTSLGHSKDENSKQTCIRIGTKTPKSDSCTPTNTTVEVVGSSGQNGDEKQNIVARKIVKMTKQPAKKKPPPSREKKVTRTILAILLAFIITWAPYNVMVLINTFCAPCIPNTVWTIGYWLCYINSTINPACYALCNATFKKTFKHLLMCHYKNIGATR
Experimental: [The procedure below names another target; the source lists this target under the same test.] as §1, §2

M3 = M3 (Homo sapiens, UniProt P20309); experiment: In vitro functional assay of muscarinic acetylcholine receptor activity, M3; conditions: antagonist activity; M3 method not separately described
Experimental: [The procedure below names another target; the source lists this target under the same test.] as §1, §2

Sequence of M3 (P20309 whole entry): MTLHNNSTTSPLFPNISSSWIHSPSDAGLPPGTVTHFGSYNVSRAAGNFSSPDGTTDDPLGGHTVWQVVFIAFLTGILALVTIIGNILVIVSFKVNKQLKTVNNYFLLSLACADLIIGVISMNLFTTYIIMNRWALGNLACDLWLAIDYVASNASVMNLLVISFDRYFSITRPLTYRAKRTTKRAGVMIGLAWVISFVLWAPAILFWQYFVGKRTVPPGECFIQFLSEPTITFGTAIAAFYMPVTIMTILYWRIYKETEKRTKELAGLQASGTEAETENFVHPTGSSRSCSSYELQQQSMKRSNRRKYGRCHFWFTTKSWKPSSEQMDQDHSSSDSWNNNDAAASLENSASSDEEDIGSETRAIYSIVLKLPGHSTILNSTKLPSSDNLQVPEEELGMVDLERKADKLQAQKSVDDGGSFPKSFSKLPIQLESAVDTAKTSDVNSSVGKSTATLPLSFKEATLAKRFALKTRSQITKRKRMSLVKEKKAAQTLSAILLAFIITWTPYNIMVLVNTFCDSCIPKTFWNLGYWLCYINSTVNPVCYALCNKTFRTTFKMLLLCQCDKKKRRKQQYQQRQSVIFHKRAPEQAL

Row | SMILES | pIC50 (human M1 receptor) | pIC50 (M2) | pIC50 (M3)
1 | Cc1ccc(N2CCN3C(=O)[C@@H](CCCc4cccc5ncnn45)C[C@H]3C2)nc1 [Example 40, (7S,8aS)-7-(3-([1,2,4]triazolo[1,5-a]pyridin-5-yl)propyl)-2-(5-methylpyridin-2-yl)hexahydropyrrolo[1,2-a]pyrazin-6(2H)-one] | > 7.00 | < 5.00 | < 5.00
2 | O=C1[C@@H](CCCc2cccc3ncnn23)C[C@H]2CN(c3ccc(C4CC4)cn3)CCN12 [Example 45, (8aS)-7-(3-([1,2,4]triazolo[1,5-a]pyridin-5-yl)propyl)-2-(5-cyclopropylpyridin-2-yl)hexahydropyrrolo[1,2-a]pyrazin-6(2H)-one] | > 7.00 | > 7.00 | 6.00 to 7.00
3 | O=C1[C@@H](CCCc2cccc3ncnn23)C[C@H]2CN(c3ccc(F)cc3)CCN12 [Example 47, (7S,8aS)-7-(3-([1,2,4]triazolo[1,5-a]pyridin-5-yl)propyl)-2-(4-fluorophenyl)hexahydropyrrolo[1,2-a]pyrazin-6(2H)-one] | 6.00 to 7.00 | < 5.00 | < 5.00
4 | Cc1ccc(N2CCN3C(=O)[C@@H](CCCc4cccc5ncnn45)C[C@H]3C2)nn1 [Example 48, (7S,8aS)-7-(3-([1,2,4]triazolo[1,5-a]pyridin-5-yl)propyl)-2-(6-methylpyridazin-3-yl)hexahydropyrrolo[1,2-a]pyrazin-6(2H)-one] | > 7.00 | 5.00 to 6.00 | 5.00 to 6.00
5 | COCc1ccc(N2CCN3C(=O)[C@@H](CCCc4cccc5ncnn45)C[C@H]3C2)nc1 [Example 49, (7S,8aS)-7-(3-([1,2,4]triazolo[1,5-a]pyridin-5-yl)propyl)-2-(5-(methoxymethyl)pyridin-2-yl)hexahydropyrrolo[1,2-a]pyrazin-6(2H)-one] | > 7.00 | 5.00 to 6.00 | 5.00 to 6.00
6 | N#Cc1cc(N2CCN3C(=O)[C@@H](CCCc4cccc5ncnn45)C[C@H]3C2)ccc1F [Example 52, 5-((7S,8aS)-7-(3-([1,2,4]triazolo[1,5-a]pyridin-5-yl)propyl)-6-oxohexahydropyrrolo [1,2-a]pyrazin-2(1H)-yl)-2-fluorobenzonitrile] | 6.00 to 7.00 | 6.00 to 7.00 | 5.00 to 6.00
7 | O=C1[C@@H](CCCc2cccc3ncnn23)C[C@H]2CN(c3ccc(CO)cn3)CCN12 [Example 53, (7S,8aS)-7-(3-([1,2,4]triazolo[1,5-a]pyridin-5-yl)propyl)-2-(5-(hydroxymethyl)pyridin-2-yl)hexahydropyrrolo[1,2-a]pyrazin-6(2H)-one] | > 7.00 | 5.00 to 6.00 | < 5.00
8 | Cn1cnc2cccc(CCC[C@H]3C[C@H]4CN(c5ccc(C#N)cn5)CCN4C3=O)c21 [Example 54, 6-((7S,8aS)-7-(3-(1-methyl-1H-benzo[d]imidazol-7-yl)propyl)-6-oxohexahydropyrrolo[1,2-a]pyrazin-2(1H)-yl)nicotinonitrile] | > 7.00 | 6.00 to 7.00 | 5.00 to 6.00
9 | Cn1ncc2cccc(CCC[C@H]3C[C@H]4CN(c5ccc(C#N)cn5)CCN4C3=O)c21 [Example 55, 6-((7S,8aS)-7-(3-(1-methyl-1H-indazol-7-yl)propyl)-6-oxohexahydropyrrolo[1,2-a]pyrazin-2(1H)-yl)nicotinonitrile] | 6.00 to 7.00 | 5.00 to 6.00 | 5.00 to 6.00
10 | N#Cc1ccc(N2CCN3C(=O)[C@@H](CCCc4cccnn4)C[C@H]3C2)nc1 [Example 56, 6-((7S,8aS)-6-oxo-7-(3-(pyridazin-3-yl)propyl)hexahydropyrrolo[1,2-a]pyrazin-2(1H)-yl)nicotinonitrile] | > 7.00 | 6.00 to 7.00 | 6.00 to 7.00
11 | Cc1nccnc1CCC[C@H]1C[C@H]2CN(c3ccc(C#N)cn3)CCN2C1=O [Example 57, 6-((7S,8aS)-7-(3-(3-methylpyrazin-2-yl)propyl)-6-oxohexahydropyrrolo[1,2-a]pyrazin-2(1H)-yl)nicotinonitrile] | 5.00 to 6.00 | 5.00 to 6.00 | < 5.00
12 | N#Cc1ccc(N2CCN3C(=O)[C@@H](CCCc4cccn5nccc45)C[C@H]3C2)nc1 [Example 58, 6-((7S,8aS)-6-oxo-7-(3-(pyrazolo[1,5-a]pyridin-4-yl)propyl)hexahydropyrrolo[1,2-a]pyrazin-2(1H)-yl)nicotinonitrile] | > 7.00 | 6.00 to 7.00 | 6.00 to 7.00
13 | N#Cc1ccc(N2CCN3C(=O)[C@@H](CCCc4cccc5ncccc45)C[C@H]3C2)nc1 [Example 59, 6-((7S,8aS)-6-oxo-7-(3-(quinolin-5-yl)propyl)hexahydropyrrolo[1,2-a]pyrazin-2(1H)-yl)nicotinonitrile] | > 7.00 | 6.00 to 7.00 | 5.00 to 6.00
14 | N#Cc1ccc(N2CCN3C(=O)[C@@H](CCCc4cccc5nccnc45)C[C@H]3C2)nc1 [Example 60, 6-((7S,8aS)-6-oxo-7-(3-(quinoxalin-5-yl)propyl)hexahydropyrrolo[1,2-a]pyrazin-2(1H)-yl)nicotinonitrile] | > 7.00 | > 7.00 | 6.00 to 7.00
15 | N#Cc1ccc(N2CCN3C(=O)[C@@H](CCCc4cccc5c4NCCN5)C[C@H]3C2)nc1 [Example 61, 6-((7S,8aS)-6-oxo-7-(3-(1,2,3,4-tetrahydroquinoxalin-5-yl)propyl)hexahydropyrrolo[1,2-a]pyrazin-2(1H)-yl)nicotinonitrile] | 6.00 to 7.00 | 5.00 to 6.00 | < 5.00
16 | O=C1[C@@H](CCCc2cccn3ncnc23)C[C@H]2CN(c3ccc(F)cn3)CCN12 [Example 62, (7S,8aS)-2-(5-fluoropyridin-2-yl)-7-(3-{[1,2,4]triazolo[1,5-a]pyridin-8-yl}propyl)-octahydropyrrolo[1,2-a]pyrazin-6-one] | > 7.00 | 5.00 to 6.00 | 5.00 to 6.00
17 | O=C1[C@@H](CCCc2cccn3ncnc23)C[C@H]2CN(c3ncc(F)cn3)CCN12 [Example 63, (7S,8aS)-7-(3-([1,2,4]triazolo[1,5-a]pyridin-8-yl)propyl)-2-(5-fluoropyrimidin-2-yl)hexahydropyrrolo[1,2-a]pyrazin-6(2H)-one] | > 7.00 | < 5.00 | 5.00 to 6.00
18 | O=C1[C@@H](CCCc2cccn3ncnc23)C[C@H]2CN(c3ncc(Cl)cn3)CCN12 [Example 64, (7S,8aS)-7-(3-([1,2,4]triazolo[1,5-a]pyridin-8-yl)propyl)-2-(5-chloropyrimidin-2-yl)hexahydropyrrolo[1,2-a]pyrazin-6(2H)-one] | > 7.00 | 6.00 to 7.00 | 5.00 to 6.00
19 | Cc1cnc(N2CCN3C(=O)[C@@H](CCCc4cccn5ncnc45)C[C@H]3C2)nc1 [Example 65, (7S,8aS)-7-(3-([1,2,4]triazolo[1,5-a]pyridin-8-yl)propyl)-2-(5-methylpyrimidin-2-yl)hexahydropyrrolo[1,2-a]pyrazin-6(2H)-one] | 6.00 to 7.00 | 5.00 to 6.00 | < 5.00
20 | O=C1[C@@H](CCCc2cccn3ncnc23)C[C@H]2CN(c3ncccn3)CCN12 [Example 66, (7S,8aS)-7-(3-([1,2,4]triazolo[1,5-a]pyridin-8-yl)propyl)-2-(pyrimidin-2-yl)hexahydropyrrolo[1,2-a]pyrazin-6(2H)-one] | 6.00 to 7.00 | < 5.00 | < 5.00
21 | N#Cc1ccc(N2CCN3C(=O)[C@@H](CCCc4cccn5ncnc45)C[C@H]3C2)cn1 [Example 67, 5-((7S,8aS)-7-(3-([1,2,4]triazolo[1,5-a]pyridin-8-yl)propyl)-6-oxohexahydropyrrolo[1,2-a]pyrazin-2(1H)-yl)picolinonitrile] | > 7.00 | 6.00 to 7.00 | > 7.00
